Test results reported in patent publication US20250326748A1, “COMPOUNDS AND METHODS FOR MODULATING SPLICING” (REMIX THERAPEUTICS INC., priority 2022, published 2025).
Structures can show the parent of a compound that is named as a salt. Where two headings read alike, the source gives them in different places.

Experiments:
[1] = tested on: K562 cells; test: Cell viability, Cell Titer Glo 2.0 assay, K562; details: 72 hours
[2] = tested on: MYB mRNA; test: Splicing RT-qPCR assay, MYB canonical (CJ) and alternative (AJ) junction mRNA; assay type: cell-based, human; details: Homo sapiens; for IC50: canonical junction mRNA; for AC50: alternative junction mRNA, read-out: MYB AJ (AC50, increase in AJ mRNA)
Description: (§1) Compounds described herein were used to modulate RNA transcript abundance in cells. The expression of a target mRNA was measured by detecting the formation of an exon-exon junction in the canonical transcript (CJ). A compound mediated exon-inclusion event was detected by observing an increase in formation of a new junction with an alternative exon (AJ). Real-time qPCR assays were used to detect these splicing switches and interrogate the potency of various compounds towards different target genes. A high-throughput real time quantitative PCR (RT-qPCR) assay was developed to measure these two isoforms of the mRNA (CJ and AJ) for exemplary genes, such as HTT, SMN2, and MYB, together with a control housekeeping gene, GAPDH or GUSB or PPIA, used for normalization. Briefly, the A673 or K562 cell line was treated with various compounds described herein (e.g., compounds of Formula (D). After treatment, the levels of the HTT, MYB, or SMN2 mRNA targets were determined from each sample of cell lysate by cDNA synthesis followed by qPCR.
(§2) • Cells-to-CT 1-step kit: ThermoFisher A25602, Cells-to-CT lysis reagent: ThermoFisher 4391851C, TaqMan™ Fast Virus 1-Step Master Mix: ThermoFisher 4444436 • GAPDH: VIC-PL, ThermoFisher 4326317E (Assay: Hs99999905_m1)—used for K562/suspension cell lines • GUSB: VIC-PL, ThermoFisher 4326320E (Assay: Hs99999908_m1)—used for K562/suspension cell lines • PPIA: VIC-PL, ThermoFisher 4326316E (Assay: Hs99999904_m1)—used for A673/adherent cell lines
(§3) The A673 cell line was cultured in DMEM with 10% FBS. Cells were diluted with full growth media and plated in a 96-well plate (15,000 cells in 100 ul media per well). The plate was incubated at 37° C. with 5% CO2 for 24 hours to allow cells to adhere. An 11-point 3-fold serial dilution of the compounds was made in DMSO then diluted in media in an intermediate plate. Compounds were transferred from the intermediate plate to the cell plate with the top dose at a final concentration of 10 uM in the well. Final DMSO concentration was kept at or below 0.25%. The cell plate was returned to the incubator at 37° C. with 5% CO2 for an additional 24 hours.
(§4) The K562 cell line was cultured in IMDM with 10% FBS. For K562, cells were diluted with full growth media and plated in either a 96-well plate (50,000 cells in 50 uL media per well) or a 384-well plate (8,000-40,000 cells in 45 uL media per well). An 11-point 3-fold serial dilution of the compounds were made in DMSO then diluted in media in an intermediate plate. Compound was transferred from the intermediate plate to the cell plate with the top dose at a final concentration of 10 uM in the well. Final DMSO concentration was kept at or below 0.25%. Final volume was 100 uL for 96-well plate and 50 uL for 384-well plate. The cell plate was then placed in an incubator at 37° C. with 5% CO2 for 24 hours.
(§5) The cells were then gently washed with 50 uL-100 uL cold PBS before proceeding to addition of lysis buffer. 30 uL-50 μL of room temperature lysis buffer with DNAse I (and optionally RNAsin) was added to each well. Cells were shaken/mixed thoroughly at room temperature for 5-10 minutes for lysis to take place and then 3 uL-5 μL of room temperature stop solution was added and wells were shaken/mixed again. After 2-5 minutes, the cell lysate plate was transferred to ice for RT-qPCR reaction setup. The lysates could also be frozen at −80° C. for later use.
(§6) In some cases, a direct lysis buffer was used. An appropriate volume of 3× lysis buffer (10 mM Tris, 150 mM NaCl, 1.5%-2.5% Igepal and 0.1-1 U/uL RNAsin, pH 7.4) was directly added to either K562 or A673 cells in media and mixed by pipetting 3 times. The plates were then incubated at room temperature with shaking/rocking for 20-50 minutes to allow for lysis to take place. After this time, the cell lysate plate was transferred to ice to set up for the RT-qPCR reactions. The lysates could also be frozen at −80° C. for later use. […]

[3] = tested on: Target C mRNA; test: Splicing RT-qPCR panel, Target C canonical junction (CJ) mRNA; assay type: cell-based, human; details: Homo sapiens, read-out: Target C CJ (decrease in CJ mRNA levels, IC50)
Description: as §1, §3, §4, §5
In some cases, a direct lysis buffer was used. An appropriate volume of 3× lysis buffer (10 mM Tris, 150 mM NaCl, 1.5%-2.5% Igepal and 0.1-1 U/uL RNAsin, pH 7.4) was directly added to either K562 or A673 cells in media and mixed by pipetting 3 times. The plates were then incubated at room temperature with shaking/rocking for 20-50 minutes to allow for lysis to take place. After this time, the cell lysate plate was transferred to ice to set up for the RT-qPCR reactions. The lysates could also be frozen at −80° C. for later use.
To set up 10 uL RT-qPCR reactions, cell lysates were transferred to 384-well qPCR plates containing the master mix according to the table below. The plates were sealed, gently vortexed, and spun down before the run. The volumes were adjusted accordingly in some instances where the reaction was carried in 20 μL. The table below summarizes the components of the RT-qPCR reactions:
The RT-qPCR reaction was performed using a QuantStudio (ThermoFisher) under the following fast cycling conditions. […]

[4] = tested on: HTT mRNA; test: Splicing RT-qPCR assay, HTT canonical (CJ) and alternative (AJ) junction mRNA; assay type: cell-based, human; details: Homo sapiens; for IC50: canonical junction mRNA; for AC50: alternative junction mRNA, read-out: HTT AJ (AC50, increase in AJ mRNA)
Description: as §1, §2, §3, §4, §5, §6

[5] = qPCR panel, read-out: MYB CJ (decrease in CJ mRNA levels, IC50)
[6] = RT-qPCR, A673 or K562 cells, 24 hours treatment
[7] = RT-qPCR, A673 or K562 cells, 24 hours treatment, read-out: MYB CJ (IC50, decrease in CJ mRNA)
[8] = 24 h, RT-qPCR, A673 or K562 cells, 24 hours treatment, read-out: HTT CJ (IC50, decrease in CJ mRNA)
[9] = qPCR panel, read-out: HTT CJ (decrease in CJ mRNA levels, IC50)

Structure (SMILES) | IC50 [2, 5] | IC50 [2, 7] | IC50 [3] | IC50 [4, 8] | IC50 [4, 9] | Effect on Cell Viability, K562 [1] | AC50 [2, 6] | AC50 [4, 6] | IC50 ([4]; RT-qPCR, A673 or K562 cells, 24 hours treatment, read-out: HTT CJ (IC50, decrease in CJ mRNA))
Cc1cn2nc(-c3cc(Cl)c4cc(N5CCNC6(CC6)C5)cnc4n3)cc(C)c2n1 [Compound 383] | 100 to 1000 nM | 100 to 1000 nM | 1000 to 10000 nM | 1000 to 10000 nM | 1000 to 10000 nM | C (1000-9999 nM) | 100 to 1000 nM | 1000 to 10000 nM | 
Cn1cc2cc(-c3cc(Cl)c4cc(N5CCNC6(CC6)C5)cnc4n3)cc(F)c2n1 [Compound 382] | 100 to 1000 nM | 100 to 1000 nM | > 10000 nM | 1000 to 10000 nM | 1000 to 10000 nM | C (1000-9999 nM) | 100 to 1000 nM | > 10000 nM | 
Cn1cc2cc(-c3cc(Cl)c4cc(N5CC[C@@H](N6CCC6)C5)cnc4n3)c(O)cc2n1 [Compound 386] | 100 to 1000 nM | 100 to 1000 nM | > 10000 nM | 1000 to 10000 nM | 1000 to 10000 nM | B (100-1000 nM) | 100 to 1000 nM | 1000 to 10000 nM | 
Cn1cc2cc(-c3cc(Cl)c4cc(N5CC[C@@H](NCCF)C5)cnc4n3)c(O)cc2n1 [Compound 387, 5-{4-chloro-6-[(3R)-3-[(2-fluoroethyl)amino]pyrrolidin-1-yl]-1,8-naphthyridin-2-yl}-2-methylindazol-6-ol hydrochloride] | < 100 nM | < 100 nM | 1000 to 10000 nM | 100 to 1000 nM | 100 to 1000 nM | B (100-1000 nM) | < 100 nM | 100 to 1000 nM | 
C[C@@H]1CN(c2cnc3nc(-c4cc5cn(C)nc5cc4O)cc(Cl)c3c2)CC2(CC2)N1 [Compound 378] | 100 to 1000 nM | 100 to 1000 nM | > 10000 nM | 1000 to 10000 nM | 1000 to 10000 nM | B (100-1000 nM) | 100 to 1000 nM | > 10000 nM | 
Cl.Cn1cc2cc(-c3cc(Cl)c4cc(N5CC[C@H](NCCF)C5)cnc4n3)c(O)cc2n1 [Compound 389] | 100 to 1000 nM | 100 to 1000 nM | 1000 to 10000 nM |  | 1000 to 10000 nM | B (100-1000 nM) | < 100 nM | 1000 to 10000 nM | 1000 to 10000 nM

Continued, in another order:

IC50 [2, 5] | IC50 [2, 7] | IC50 [3] | IC50 [4, 8] | IC50 [4, 9] | Structure (SMILES) | Effect on Cell Viability, K562 [1] | AC50 [2, 6] | AC50 [4, 6] | IC50 ([4]; RT-qPCR, A673 or K562 cells, 24 hours treatment, read-out: HTT CJ (IC50, decrease in CJ mRNA))
100 to 1000 nM | 100 to 1000 nM | 1000 to 10000 nM | 1000 to 10000 nM | 1000 to 10000 nM | Cc1cn2nc(-c3ccc4c(Cl)c(N5C[C@@H](C)N[C@@H](C)C5)cnc4n3)cc(C)c2n1 [Compound 392] | B (100-1000 nM) | 100 to 1000 nM | 1000 to 10000 nM | 
100 to 1000 nM | 100 to 1000 nM | > 10000 nM | 1000 to 10000 nM | 1000 to 10000 nM | Cc1c(O)c(-c2cc(C3CC3)c3cc(N4C[C@@H](C)N[C@@H](C)C4)cnc3n2)cc2cn(C)nc12 [Compound 374, 5-{4-cyclopropyl-6-[(3R,5S)-3,5-dimethylpiperazin-1-yl]-1,8-naphthyridin-2-yl}-2,7-dimethylindazol-6-ol] | C (1000-9999 nM) | 100 to 1000 nM | 1000 to 10000 nM | 
< 100 nM | < 100 nM | 1000 to 10000 nM | > 10000 nM | > 10000 nM | C[C@H]1CN(c2cnc3nc(-c4cc(F)c5nn(C)cc5c4)ccc3c2Cl)CCN1 [Compound 385, 5-chloro-2-(7-fluoro-2-methylindazol-5-yl)-6-[(3S)-3-methylpiperazin-1-yl]-1,8-naphthyridine] | A (<100 nM) | 100 to 1000 nM | 1000 to 10000 nM | 
100 to 1000 nM | 100 to 1000 nM | 1000 to 10000 nM | > 10000 nM | > 10000 nM | C[C@@H]1CN(c2cnc3nc(-c4cc(F)c5nn(C)cc5c4)ccc3c2Cl)C[C@H](C)N1 [Compound 391] | B (100-1000 nM) | 100 to 1000 nM | 1000 to 10000 nM | 
< 100 nM | < 100 nM | 1000 to 10000 nM | 100 to 1000 nM | 100 to 1000 nM | Cc1c(N2C[C@H](C)N[C@@H](C)C2)cnc2nc(-c3cc4cn(C)nc4c(C)c3O)ccc12 [Compound 395, 5-{6-[(3S,5S)-3,5-dimethylpiperazin-1-yl]-5-methyl-1,8-naphthyridin-2-yl}-2,7-dimethylindazol-6-ol] | B (100-1000 nM) | 100 to 1000 nM | 1000 to 10000 nM | 
< 100 nM | < 100 nM | 1000 to 10000 nM | 100 to 1000 nM | 100 to 1000 nM | Cc1c(O)c(-c2cc(C3CC3)c3cc(N4C[C@H](C)N[C@@H](C)C4)cnc3n2)cc2cn(C)nc12 [Compound 377, 5-{4-cyclopropyl-6-[(3S,5S)-3,5-dimethylpiperazin-1-yl]-1,8-naphthyridin-2-yl}-2,7-dimethylindazol-6-ol] | B (100-1000 nM) | < 100 nM | 100 to 1000 nM | 
< 100 nM | < 100 nM | 1000 to 10000 nM | 100 to 1000 nM | 100 to 1000 nM | Cc1c(O)c(-c2cc(C#N)c3cc(N4C[C@H](C)N[C@@H](C)C4)cnc3n2)cc2cn(C)nc12 [Compound 384, 6-[(3S,5S)-3,5-dimethylpiperazin-1-yl]-2-(6-hydroxy-2,7-dimethylindazol-5-yl)-1,8-naphthyridine-4-carbonitrile] | A (<100 nM) | < 100 nM | 100 to 1000 nM | 
